# Reference: patent US12577206B2 (BRISTOL-MYERS SQUIBB COMPANY, priority 2020, dated 2026)
# Experiments:
# human FPR2 = target: T1, human FPR2 (Homo sapiens, UniProt P25090); assay: FPR2 cyclic adenosine monophosphate (cAMP) assay; assay type: cell-based; conditions: CHO cells overexpressing human FPR2; forskolin 5 μM; inhibition of cAMP production; HTRF; read-out: hFPR2 cAMP2 EC50
# T1 sequence (P25090 1-351): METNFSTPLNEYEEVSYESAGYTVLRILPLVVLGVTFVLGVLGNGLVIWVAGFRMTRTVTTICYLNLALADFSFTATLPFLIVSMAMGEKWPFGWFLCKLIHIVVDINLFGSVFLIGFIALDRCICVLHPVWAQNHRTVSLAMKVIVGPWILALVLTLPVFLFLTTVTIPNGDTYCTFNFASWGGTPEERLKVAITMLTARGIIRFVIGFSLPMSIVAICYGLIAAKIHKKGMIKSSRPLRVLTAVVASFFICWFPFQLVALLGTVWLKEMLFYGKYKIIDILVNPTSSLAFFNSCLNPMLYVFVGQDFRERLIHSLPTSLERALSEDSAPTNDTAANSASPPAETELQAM
# How it was run: (§1)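 Inhibition of forskolin-stimulated cAMP (final forskolin 5 μM for FPR2, 10 μM for FPR1; IBMX 200 μM) was measured by HTRF in recombinant CHO cells after 30 min at room temperature.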
# human FPR1 = target: T2, human FPR1 (Homo sapiens, UniProt P21462); assay: FPR1 cyclic adenosine monophosphate (cAMP) assay; assay type: cell-based; conditions: CHO cells overexpressing human FPR1; forskolin 10 μM; inhibition of cAMP production; HTRF; read-out: hFPR1 cAMP2 EC50
# T2 sequence (P21462 1-350): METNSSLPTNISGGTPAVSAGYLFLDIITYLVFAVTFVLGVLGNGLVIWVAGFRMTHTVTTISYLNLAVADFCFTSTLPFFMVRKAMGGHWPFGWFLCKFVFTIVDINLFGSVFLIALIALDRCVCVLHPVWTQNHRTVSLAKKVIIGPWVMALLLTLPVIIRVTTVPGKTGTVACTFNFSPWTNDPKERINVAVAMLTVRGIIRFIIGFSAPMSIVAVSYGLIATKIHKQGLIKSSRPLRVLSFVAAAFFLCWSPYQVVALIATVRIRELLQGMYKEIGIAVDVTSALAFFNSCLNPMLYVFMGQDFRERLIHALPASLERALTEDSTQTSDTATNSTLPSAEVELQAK
# How it was run: as §1
SMILES,EC50 (human FPR2) [nM],EC50 (human FPR1) [nM]
"COc1cc(F)c(-c2c(NC(=O)c3ccc(OC(F)F)cc3)c(=O)n(-c3ncccc3Br)n2C)c(F)c1 [Example 165, N-[2-(3-bromopyridin-2-yl)-5-(2,6-difluoro-4-methoxyphenyl)-1-methyl-3-oxo-2,3-dihydro-1H-pyrazol-4-yl]-4-(difluoromethoxy)benzamide]",15,> 10000
"CCc1cccnc1-n1c(=O)c(NC(=O)c2ccc(OC(F)F)cc2)c(-c2c(F)cc(OC)cc2F)n1C [Example 166, N-[5-(2,6-difluoro-4-methoxyphenyl)-2-(3-ethylpyridin-2-yl)-1-methyl-3-oxo-2,3-dihydro-1H-pyrazol-4-yl]-4-(difluoromethoxy)benzamide]",20,> 10000
"COc1cc(F)c(-c2c(NC(=O)c3ccc(OC(F)(F)F)cc3)c(=O)n(-c3cccc(C4CC4)n3)n2C)c(F)c1 [Example 167, N-[2-(6-cyclopropylpyridin-2-yl)-5-(2,6-difluoro-4-methoxyphenyl)-1-methyl-3-oxo-2,3-dihydro-1H-pyrazol-4-yl]-4-(trifluoromethoxy)benzamide]",4,460
"COc1cc(F)c(-c2c(NC(=O)c3ccc(OC(F)F)cc3)c(=O)n(-c3cccc(OC(F)F)n3)n2C)c(F)c1 [Example 168, N-[5-(2,6-difluoro-4-methoxyphenyl)-2-[6-(difluoromethoxy)pyridin-2-yl]-1-methyl-3-oxo-2,3-dihydro-1H-pyrazol-4-yl]-4-(difluoromethoxy)benzamide]",12,> 10000
"COc1cc(F)c(-c2c(NC(=O)c3ccc(OC(F)(F)F)cc3)c(=O)n(-c3cccc(OC(F)F)n3)n2C)c(F)c1 [Example 169, N-[5-(2,6-difluoro-4-methoxyphenyl)-2-[6-(difluoromethoxy)pyridin-2-yl]-1-methyl-3-oxo-2,3-dihydro-1H-pyrazol-4-yl]-4-(trifluoromethoxy)benzamide]",15,1400
"COc1cc(F)c(-c2c(NC(=O)c3ccc(OC(F)(F)F)cc3)c(=O)n(-c3cccnc3C#N)n2C)c(F)c1 [Example 170, N-[2-(2-cyanopyridin-3-yl)-5-(2,6-difluoro-4-methoxyphenyl)-1-methyl-3-oxo-2,3-dihydro-1H-pyrazol-4-yl]-4-(trifluoromethoxy)benzamide]",8,> 10000
"COc1cc(F)c(-c2c(NC(=O)c3ccc(OC(F)F)cc3)c(=O)n(-c3ccccc3Cl)n2C)c(F)c1 [Example 171, N-[2-(2-chlorophenyl)-5-(2,6-difluoro-4-methoxyphenyl)-1-methyl-3-oxo-2,3-dihydro-1H-pyrazol-4-yl]-4-(difluoromethoxy)benzamide]",12,> 10000
"COc1cc(F)c(-c2c(NC(=O)c3ccc(OC(F)(F)F)cc3)c(=O)n(-c3ccccc3Cl)n2C)c(F)c1 [Example 172, N-[2-(2-chlorophenyl)-5-(2,6-difluoro-4-methoxyphenyl)-1-methyl-3-oxo-2,3-dihydro-1H-pyrazol-4-yl]-4-(trifluoromethoxy)benzamide]",13,3300
"COc1cc(F)c(-c2c(NC(=O)c3ccc(OC(F)F)cc3)c(=O)n(-c3ccccc3C#N)n2C)c(F)c1 [Example 173, N-[2-(2-cyanophenyl)-5-(2,6-difluoro-4-methoxyphenyl)-1-methyl-3-oxo-2,3-dihydro-1H-pyrazol-4-yl]-4-(difluoromethoxy)benzamide]",20,> 10000
"COc1cc(F)c(-c2c(NC(=O)c3ccc(OC(F)(F)F)cc3)c(=O)n(-c3ccccc3C#N)n2C)c(F)c1 [Example 174, N-[2-(2-cyanophenyl)-5-(2,6-difluoro-4-methoxyphenyl)-1-methyl-3-oxo-2,3-dihydro-1H-pyrazol-4-yl]-4-(trifluoromethoxy)benzamide]",7,> 10000
"COc1cc(F)c(-c2c(NC(=O)c3ccc(OC(F)F)cc3)c(=O)n(-c3cccc(F)c3Cl)n2C)c(F)c1 [Example 175, N-[2-(2-chloro-3-fluorophenyl)-5-(2,6-difluoro-4-methoxyphenyl)-1-methyl-3-oxo-2,3-dihydro-1H-pyrazol-4-yl]-4-(difluoromethoxy)benzamide]",25,> 10000
"COc1cc(F)c(-c2c(NC(=O)c3ccc(OC(F)F)cc3)c(=O)n(-c3cc(Cl)ccc3Cl)n2C)c(F)c1 [Example 176, N-[2-(2,5-dichlorophenyl)-5-(2,6-difluoro-4-methoxyphenyl)-1-methyl-3-oxo-2,3-dihydro-1H-pyrazol-4-yl]-4-(difluoromethoxy)benzamide]",9,> 10000
"COc1cc(F)c(-c2c(NC(=O)c3ccc(OC(F)F)cc3)c(=O)n(-c3cccc(OC(F)F)c3)n2C)c(F)c1 [Example 177, N-[5-(2,6-difluoro-4-methoxyphenyl)-2-[3-(difluoromethoxy)phenyl]-1-methyl-3-oxo-2,3-dihydro-1H-pyrazol-4-yl]-4-(difluoromethoxy)benzamide]",3,3
"COc1cc(F)c(-c2c(NC(=O)c3ccc(OC(F)F)cc3)c(=O)n(-c3cccc(F)c3C#N)n2C)c(F)c1 [Example 178, N-[2-(2-cyano-3-fluorophenyl)-5-(2,6-difluoro-4-methoxyphenyl)-1-methyl-3-oxo-2,3-dihydro-1H-pyrazol-4-yl]-4-(difluoromethoxy)benzamide]",6,> 10000
"COc1cc(F)c(-c2c(NC(=O)c3ccc(OC(F)F)cc3)c(=O)n(-c3cc(C#N)ccc3C#N)n2C)c(F)c1 [Example 179, N-[2-(2,5-dicyanophenyl)-5-(2,6-difluoro-4-methoxyphenyl)-1-methyl-3-oxo-2,3-dihydro-1H-pyrazol-4-yl]-4-(difluoromethoxy)benzamide]",23,300
"COc1cc(F)c(-c2c(NC(=O)c3ccc(OC(F)F)cc3)c(=O)n(-c3nccc(C)c3Cl)n2C)c(F)c1 [Example 180, N-[2-(3-chloro-4-methylpyridin-2-yl)-5-(2,6-difluoro-4-methoxyphenyl)-1-methyl-3-oxo-2,3-dihydro-1H-pyrazol-4-yl]-4-(difluoromethoxy)benzamide]",8,> 10000
"COc1cc(F)c(-c2c(NC(=O)c3ccc(OC(F)F)cc3)c(=O)n(-c3cccc(OC)c3Cl)n2C)c(F)c1 [Example 181, N-[2-(2-chloro-3-methoxyphenyl)-5-(2,6-difluoro-4-methoxyphenyl)-1-methyl-3-oxo-2,3-dihydro-1H-pyrazol-4-yl]-4-(difluoromethoxy)benzamide]",6,140
"COc1cc(F)c(-c2c(NC(=O)c3ccc(OC(F)F)cc3)c(=O)n(-c3nc(OC)ccc3Cl)n2C)c(F)c1 [Example 182, N-[2-(3-chloro-6-methoxypyridin-2-yl)-5-(2,6-difluoro-4-methoxyphenyl)-1-methyl-3-oxo-2,3-dihydro-1H-pyrazol-4-yl]-4-(difluoromethoxy)benzamide]",12,> 10000
"COc1cc(F)c(-c2c(NC(=O)c3ccc(OC(F)F)cc3)c(=O)n(-c3cc(OC)ccc3C#N)n2C)c(F)c1 [Example 183, N-[2-(2-cyano-5-methoxyphenyl)-5-(2,6-difluoro-4-methoxyphenyl)-1-methyl-3-oxo-2,3-dihydro-1H-pyrazol-4-yl]-4-(difluoromethoxy)benzamide]",11,3900
"COc1cc(F)c(-c2c(NC(=O)c3ccc(OC(F)F)cc3)c(=O)n(-c3cccc(OC)c3C#N)n2C)c(F)c1 [Example 184, N-[2-(2-cyano-3-methoxyphenyl)-5-(2,6-difluoro-4-methoxyphenyl)-1-methyl-3-oxo-2,3-dihydro-1H-pyrazol-4-yl]-4-(difluoromethoxy)benzamide]",8,> 10000
"COc1cc(F)c(-c2c(NC(=O)c3ccc(OC(F)F)cc3)c(=O)n(-c3nc(OC)ccc3C#N)n2C)c(F)c1 [Example 185, N-[2-(3-cyano-6-methoxypyridin-2-yl)-5-(2,6-difluoro-4-methoxyphenyl)-1-methyl-3-oxo-2,3-dihydro-1H-pyrazol-4-yl]-4-(difluoromethoxy)benzamide]",5,> 10000
"COc1cc(F)c(-c2c(NC(=O)c3ccc(OC(F)F)cc3)c(=O)n(-c3cc(F)ccc3Cl)n2C)c(F)c1 [Example 186, N-[2-(2-chloro-5-fluorophenyl)-5-(2,6-difluoro-4-methoxyphenyl)-1-methyl-3-oxo-2,3-dihydro-1H-pyrazol-4-yl]-4-(difluoromethoxy)benzamide]",10,> 10000
